Source: PubChem BioAssay (NCI)
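Test compounds were applied to cells in 96-well plates for 48 hours at 5 doses. GI50: concentration for 50% inhibition of growth. TGI: concentration producing complete growth inhibition.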

Tests used:
Assay in all cases: NCI tumour cell line growth inhibition, 48 h
SK-MEL-5 melanoma = test system: SK-MEL-5 melanoma
HOP-62 NSCLC = test system: HOP-62 NSCLC
DU-145 prostate = test system: DU-145 prostate
IGROV1 ovarian = test system: IGROV1 ovarian
OVCAR-4 ovarian = test system: OVCAR-4 ovarian
K-562 leukemia = test system: K-562 leukemia
OVCAR-8 ovarian = test system: OVCAR-8 ovarian
ACHN renal = test system: ACHN renal
SF-268 CNS = test system: SF-268 CNS
MCF7 breast = test system: MCF7 breast
SK-MEL-2 melanoma = test system: SK-MEL-2 melanoma
CCRF-CEM leukemia = test system: CCRF-CEM leukemia
A498 renal = test system: A498 renal
U251 CNS = test system: U251 CNS
OVCAR-5 ovarian = test system: OVCAR-5 ovarian
786-0 renal = test system: 786-0 renal
SNB-75 CNS = test system: SNB-75 CNS
MOLT-4 leukemia = test system: MOLT-4 leukemia
NCI-H226 lung = test system: NCI-H226 lung
KM12 colon = test system: KM12 colon
MALME-3M melanoma = test system: MALME-3M melanoma
UACC-257 melanoma = test system: UACC-257 melanoma
SF-539 CNS = test system: SF-539 CNS
EKVX NSCLC = test system: EKVX NSCLC
SNB-19 CNS = test system: SNB-19 CNS
SF-295 CNS = test system: SF-295 CNS
T-47D breast = test system: T-47D breast
HS 578T breast = test system: HS 578T breast
NCI-H522 lung = test system: NCI-H522 lung
CAKI-1 renal = test system: CAKI-1 renal
A549 NSCLC = test system: A549 NSCLC
COLO 205 colon = test system: COLO 205 colon
HL-60(TB) leukemia = test system: HL-60(TB) leukemia
OVCAR-3 ovarian = test system: OVCAR-3 ovarian
UO-31 renal = test system: UO-31 renal
HCT-116 colon = test system: HCT-116 colon
NCI-H460 lung = test system: NCI-H460 lung
SK-OV-3 ovarian = test system: SK-OV-3 ovarian
TK-10 renal = test system: TK-10 renal
HOP-92 NSCLC = test system: HOP-92 NSCLC
MDA-MB-231 breast = test system: MDA-MB-231 breast
NCI/ADR-RES ovarian = test system: NCI/ADR-RES ovarian
SW-620 colon = test system: SW-620 colon
SR leukemia = test system: SR leukemia
PC-3 prostate = test system: PC-3 prostate
MDA-MB-435 = test system: MDA-MB-435
LOX IMVI melanoma = test system: LOX IMVI melanoma
M14 melanoma = test system: M14 melanoma
HCC-2998 colon = test system: HCC-2998 colon
SK-MEL-28 melanoma = test system: SK-MEL-28 melanoma
UACC-62 melanoma = test system: UACC-62 melanoma
BT-549 breast = test system: BT-549 breast
HCT-15 colon = test system: HCT-15 colon
RPMI-8226 leukemia = test system: RPMI-8226 leukemia
RXF 393 renal = test system: RXF 393 renal
HT29 colon = test system: HT29 colon
SN12C renal = test system: SN12C renal

Work on `COCCOc1ccc2ncc(C#Cc3cncc(C(=O)Nc4ccc(CN5CCN(C)CC5)c(C(F)(F)F)c4)c3)n2n1` yielded a GI50 (SK-MEL-5 melanoma) of 1700 nM, a TGI (SK-MEL-5 melanoma) of 7260 nM and a GI50 (HOP-62 NSCLC) of 997 nM. The TGI (HOP-62 NSCLC) was 4370 nM, the GI50 (DU-145 prostate) was 1060 nM and the TGI (DU-145 prostate) was 4760 nM. For the same compound, the GI50 (IGROV1 ovarian) was 351 nM, the TGI (IGROV1 ovarian) was 2350 nM and the GI50 (OVCAR-4 ovarian) was 840 nM. For the same compound, the TGI (OVCAR-4 ovarian) was 8450 nM, the GI50 (K-562 leukemia) was 5 nM and the TGI (K-562 leukemia) was 937 nM. For the same compound, the GI50 (OVCAR-8 ovarian) was 874 nM, the TGI (OVCAR-8 ovarian) was 2220 nM and the GI50 (ACHN renal) was 364 nM. It also gave a TGI (ACHN renal) of 2010 nM, a GI50 (SF-268 CNS) of 787 nM and a TGI (SF-268 CNS) of 2130 nM. The GI50 (MCF7 breast) was 166 nM, the TGI (MCF7 breast) was 968 nM and the GI50 (SK-MEL-2 melanoma) was 403 nM. The TGI (SK-MEL-2 melanoma) was 1130 nM, the GI50 (CCRF-CEM leukemia) was 700 nM and the TGI (CCRF-CEM leukemia) was 4630 nM. The GI50 (A498 renal) was 1170 nM, the TGI (A498 renal) was 2250 nM and the GI50 (U251 CNS) was 2190 nM. The TGI (U251 CNS) was 10200 nM, the GI50 (OVCAR-5 ovarian) was 663 nM and the TGI (OVCAR-5 ovarian) was 6070 nM. For the same compound, the GI50 (786-0 renal) was 802 nM, the TGI (786-0 renal) was 1640 nM and the GI50 (SNB-75 CNS) was 272 nM. The TGI (SNB-75 CNS) was 1260 nM, the GI50 (MOLT-4 leukemia) was 696 nM and the TGI (MOLT-4 leukemia) was 3730 nM. The GI50 (NCI-H226 lung) was 271 nM, the TGI (NCI-H226 lung) was 1540 nM and the GI50 (KM12 colon) was 14 nM. The TGI (KM12 colon) was 2720 nM, the GI50 (MALME-3M melanoma) was 220 nM and the TGI (MALME-3M melanoma) was 868 nM. The GI50 (UACC-257 melanoma) was 1200 nM, the TGI (UACC-257 melanoma) was 5690 nM and the GI50 (SF-539 CNS) was 209 nM. It also gave a TGI (SF-539 CNS) of 3090 nM, a GI50 (EKVX NSCLC) of 951 nM and a TGI (EKVX NSCLC) of 7750 nM. The GI50 (SNB-19 CNS) was 3920 nM, the TGI (SNB-19 CNS) was 15000 nM and the GI50 (SF-295 CNS) was 3360 nM. The TGI (SF-295 CNS) was 12700 nM, the GI50 (T-47D breast) was 2720 nM and the TGI (T-47D breast) was 12500 nM. For the same compound, the GI50 (HS 578T breast) was 598 nM, the TGI (HS 578T breast) was 2640 nM and the GI50 (NCI-H522 lung) was 620 nM. It also gave a TGI (NCI-H522 lung) of 1450 nM, a GI50 (CAKI-1 renal) of 484 nM and a TGI (CAKI-1 renal) of 2920 nM. It also gave a GI50 (A549 NSCLC) of 885 nM, a TGI (A549 NSCLC) of 2610 nM and a GI50 (COLO 205 colon) of 529 nM. For the same compound, the TGI (COLO 205 colon) was 1540 nM, the GI50 (HL-60(TB) leukemia) was 311 nM and the TGI (HL-60(TB) leukemia) was 1480 nM. It also gave a GI50 (OVCAR-3 ovarian) of 1090 nM, a TGI (OVCAR-3 ovarian) of 7440 nM and a GI50 (UO-31 renal) of 622 nM. It also gave a TGI (UO-31 renal) of 3190 nM, a GI50 (HCT-116 colon) of 227 nM and a TGI (HCT-116 colon) of 1020 nM. The GI50 (NCI-H460 lung) was 708 nM, the TGI (NCI-H460 lung) was 1470 nM and the GI50 (SK-OV-3 ovarian) was 2070 nM. For the same compound, the TGI (SK-OV-3 ovarian) was 6400 nM, the GI50 (TK-10 renal) was 1590 nM and the TGI (TK-10 renal) was 5860 nM. The GI50 (HOP-92 NSCLC) was 142 nM, the TGI (HOP-92 NSCLC) was 628 nM and the GI50 (MDA-MB-231 breast) was 274 nM. The TGI (MDA-MB-231 breast) was 1240 nM, the GI50 (NCI/ADR-RES ovarian) was 1210 nM and the TGI (NCI/ADR-RES ovarian) was 3410 nM. It also gave a GI50 (SW-620 colon) of 402 nM, a TGI (SW-620 colon) of 1350 nM and a GI50 (SR leukemia) of 687 nM. For the same compound, the TGI (SR leukemia) was 2480 nM, the GI50 (PC-3 prostate) was 1790 nM and the TGI (PC-3 prostate) was 8290 nM. The GI50 (MDA-MB-435) was 421 nM, the TGI (MDA-MB-435) was 4440 nM and the GI50 (LOX IMVI melanoma) was 367 nM. For the same compound, the TGI (LOX IMVI melanoma) was 1040 nM, the GI50 (M14 melanoma) was 265 nM and the TGI (M14 melanoma) was 1130 nM. It also gave a GI50 (HCC-2998 colon) of 1180 nM, a TGI (HCC-2998 colon) of 7540 nM and a GI50 (SK-MEL-28 melanoma) of 676 nM. For the same compound, the TGI (SK-MEL-28 melanoma) was 1720 nM, the GI50 (UACC-62 melanoma) was 1500 nM and the TGI (UACC-62 melanoma) was 7660 nM. For the same compound, the GI50 (BT-549 breast) was 1540 nM, the TGI (BT-549 breast) was 4280 nM and the GI50 (HCT-15 colon) was 549 nM. For the same compound, the TGI (HCT-15 colon) was 2510 nM, the GI50 (RPMI-8226 leukemia) was 874 nM and the TGI (RPMI-8226 leukemia) was 2590 nM. It also gave a GI50 (RXF 393 renal) of 733 nM, a TGI (RXF 393 renal) of 1410 nM and a GI50 (HT29 colon) of 372 nM. It also gave a TGI (HT29 colon) of 3090 nM, a GI50 (SN12C renal) of 516 nM and a TGI (SN12C renal) of 3670 nM.
